# Experimental data published in patent US10681909B2, “Herbicidal triazoles” (FMC Corporation, priority 2014, dated 2020).
# Columns and labels:
# [1] = system: lambsquarters; assay: Test C preemergence; type: in vivo, Chenopodium album; settings: for Plant response rating (scale of 0 to 100 where 0 is no effect and 100 is complete control): Lambsquarters, preemergence; for Lambsquarters plant response rating (0 to 100): Preemergence, visual rating after 13 to 15 d
# Text: (§1) Seeds of plant species selected from blackgrass (Alopecurus myosuroides), ryegrass, Italian (Italian ryegrass, Lolium multiflorum), wheat (winter wheat, Triticum aestivum), galium (catchweed bedstraw, Galium aparine), corn (Zea mays), crabgrass, large (large crabgrass, Digitaria sanguinalis), foxtail, giant, (giant foxtail, Setaria faberii), johnsongrass (Sorghum halepense), lambsquarters (Chenopodium album), morningglory (Ipomoea coccinea), nutsedge, yellow (yellow nutsedge, Cyperus esculentus), pigweed (Amaranthus retroflexus), ragweed (common ragweed, Ambrosia elatior), soybean (Glycine max), barnyardgrass (Echinochloa crus-galli), oilseed rape (Brassica napus), waterhemp (common waterhemp, Amaranthus rudis), and velvetleaf (Abutilon theophrasti) were planted into a blend of loam soil and sand and treated preemergence with test chemicals formulated in a non-phytotoxic solvent mixture which included a surfactant. At the same time, plants selected from these crop and weed species and also chickweed (common chickweed, Stellaria media), oat, wild (wild oat, Avena fatua), and kochia (Kochia scoparia), were planted in pots containing Sunshine Redi-Earth® planting medium comprising spaghnum peat moss, vermiculite, starter nutrients and dolomitic limestone and treated with postemergence applications of test chemicals formulated in the same manner. Plants ranged in height from 2 to 18 cm (1- to 4-leaf stage) for postemergence treatments. […] A dash (-) response means no test result.
# [2] = system: velvetleaf; assay: Test A preemergence; type: in vivo, Abutilon theophrasti; settings: Abutilon theophrasti, pre-emergence, 240 h, 0 to 100 scale (0 no effect, 100 complete control), read-out: Plant response rating, Velvetleaf
# Summary of the method: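 For preemergence, seeds were sown in a loam soil-sand blend and given a directed soil spray of test chemical in a non-phytotoxic solvent mixture with surfactant. For postemergence, plants in pots of the same blend were sprayed with the same formulation at the one- to two-leaf stage, 2 to 10 cm tall.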
# [3] = system: morningglory; assay: Test C preemergence; type: in vivo, Ipomoea coccinea; settings: for Plant response rating (scale of 0 to 100 where 0 is no effect and 100 is complete control): Morningglory, preemergence; for Morningglory plant response rating (0 to 100): Preemergence, visual rating after 13 to 15 d
# Text: as §1
# [4] = system: velvetleaf; assay: Test C preemergence; type: in vivo, Abutilon theophrasti; settings: for Velvetleaf plant response rating (0 to 100): Preemergence, visual rating after 13 to 15 d; for Plant response rating (scale of 0 to 100 where 0 is no effect and 100 is complete control): Velvetleaf, preemergence, 250 g ai/ha
# Text: as §1
# [5] = system: pigweed; assay: Test D preemergence; type: in vivo, Amaranthus retroflexus; settings: for Plant response rating (0 to 100), Pigweed: 16 g ai/ha, 0 is no effect, 100 is complete control; for Plant response rating: Pigweed: scale 0 to 100
# Text: (§2) Seeds of plant species selected from bluegrass (annual bluegrass, Poa annua), blackgrass (Alopecurus myosuroides), canarygrass (Phalaris minor), chickweed (common chickweed, Stellaria media), galium (catchweed bedstraw, Galium aparine), bromegrass, down (downy bromegrass, Bromus tectorum), Russian thistle (Salsola kali), field poppy (Papaver rhoeas), field violet (Viola arvensis), foxtail, green (green foxtail, Setaria viridis), deadnettle (henbit deadnettle, Lamium amplexicaule), ryegrass, Ital. (Italian ryegrass, Lolium multiflorum), kochia (Kochia scoparia), lambsquarters (Chenopodium album), oilseed rape (Brassica napus), pigweed (Amaranthus retroflexus), chamomile (scentless chamomile, Matricaria inodora), speedwell (bird's-eye speedwell, Veronica persica), barley, spring (spring barley, Hordeum vulgare), wheat, spring (spring wheat, Triticum aestivum), buckwheat, wild (wild buckwheat, Polygonum convolvulus), wild mustard (Sinapis arvensis), oat, wild (wild oat, Avena fatua), radish, wild (wild radish, Raphanus raphanistrum), […]), barley, winter (winter barley, Hordeum vulgare), and wheat, winter (winter wheat, Triticum aestivum) were planted into a silt loam soil and treated preemergence with test chemicals formulated in a non-phytotoxic solvent mixture which included a surfactant. At the same time, these species were planted in pots containing Sunshine Redi-Earth® planting medium comprising spaghnum peat moss, vermiculite, starter nutrients and dolomitic limestone and treated with postemergence applications of the test chemicals formulated in the same manner. Plants ranged in height from 2 to 18 cm (1- to 4-leaf stage). Treated plants and controls were maintained in a controlled growth environment for 14 to 21 d after which time all species were compared to controls and visually evaluated. […] A dash (-) response means no test result.
# [6] = system: bromegrass, down; assay: Test D preemergence; type: in vivo, Bromus tectorum; settings: for Plant response rating (0 to 100), Bromegrass, Down: 16 g ai/ha, 0 is no effect, 100 is complete control; for Plant response rating: Bromegrass, Down: scale 0 to 100
# Text: as §2
# [7] = system: chamomile; assay: Test D postemergence; type: in vivo, Matricaria inodora; settings: scale 0 to 100
# Text: as §2
# [8] = system: speedwell; assay: Test D postemergence; type: in vivo, Veronica persica; settings: scale 0 to 100
# Text: as §2
# [9] = system: bromegrass, down; assay: Test D postemergence; type: in vivo, Bromus tectorum; settings: scale 0 to 100
# Text: as §2
# [10] = system: barley, spring; assay: Test D preemergence; type: in vivo, Hordeum vulgare; settings: for Plant response rating (0 to 100), Barley, Spring: 16 g ai/ha, 0 is no effect, 100 is complete control; for Plant response rating: Barley, Spring: scale 0 to 100
# Text: as §2
# [11] = system: barley, winter; assay: Test D preemergence; type: in vivo, Hordeum vulgare; settings: for Plant response rating (0 to 100), Barley, Winter: 16 g ai/ha, 0 is no effect, 100 is complete control; for Plant response rating: Barley, Winter: scale 0 to 100
# Text: as §2
# [12] = system: wild mustard; assay: Test D postemergence; type: in vivo, Sinapis arvensis; settings: scale 0 to 100
# Text: as §2
# [13] = system: wild mustard; assay: Test D preemergence; type: in vivo, Sinapis arvensis; settings: for Plant response rating (0 to 100), Mustard, Wild: 16 g ai/ha, 0 is no effect, 100 is complete control; for Plant response rating: Mustard, Wild: scale 0 to 100
# Text: as §2
# [14] = system: oat, wild; assay: Test D postemergence; type: in vivo, Avena fatua; settings: scale 0 to 100
# Text: as §2
smiles,measurement,setting,value
"COc1nc(-c2ccc(F)cc2)nn1Cc1ccnc(C(F)(F)F)c1 [Compound 9, 4-[[3-(4-fluorophenyl)-5-methoxy-1H-1,2,4-triazol-1-yl]methyl]-2-(trifluoromethyl)pyridine]",Plant response rating (scale of 0 to 100 where 0 is no effect and 100 is complete control),[1]; 125 g ai/ha,98
same,Plant response rating (scale of 0 to 100 where 0 is no effect and 100 is complete control),[1]; 250 g ai/ha,98
same,Lambsquarters plant response rating (0 to 100),[1]; 31 g ai/ha,70
same,Lambsquarters plant response rating (0 to 100),[1]; 62 g ai/ha,85
same,pest or weed control at 125 g/ha,[2]; 125 g ai/ha,0%
same,pest or weed control at 500 g/ha,"[2]; 500 g ai/ha, approx. 10 d",80%
same,Plant response rating (scale of 0 to 100 where 0 is no effect and 100 is complete control),[3]; 125 g ai/ha,45
same,Plant response rating (scale of 0 to 100 where 0 is no effect and 100 is complete control),[3]; 250 g ai/ha,90
same,Morningglory plant response rating (0 to 100),[3]; 31 g ai/ha,5
same,Morningglory plant response rating (0 to 100),[3]; 62 g ai/ha,45
same,Velvetleaf plant response rating (0 to 100),[4]; 31 g ai/ha,20
same,Velvetleaf plant response rating (0 to 100),[4]; 62 g ai/ha,25
same,Plant response rating (scale of 0 to 100 where 0 is no effect and 100 is complete control),[4],60
FC(F)(F)COc1nc(-c2ccccc2)nn1Cc1ccnc(C(F)(F)F)c1 [Compound 24],"Plant response rating (0 to 100), Pigweed",[5],95
same,Plant response rating: Pigweed,[5]; 62 g ai/ha,100
same,Plant response rating: Pigweed,[5]; 125 g ai/ha,100
same,Plant response rating (scale of 0 to 100 where 0 is no effect and 100 is complete control),[1]; 125 g ai/ha,85
same,Plant response rating (scale of 0 to 100 where 0 is no effect and 100 is complete control),[1]; 250 g ai/ha,85
same,Lambsquarters plant response rating (0 to 100),[1]; 31 g ai/ha,60
same,Lambsquarters plant response rating (0 to 100),[1]; 62 g ai/ha,75
same,"Plant response rating (0 to 100), Bromegrass, Down",[6],25
same,"Plant response rating: Bromegrass, Down",[6]; 31 g ai/ha,40
same,"Plant response rating: Bromegrass, Down",[6]; 62 g ai/ha,35
same,"Plant response rating: Bromegrass, Down",[6]; 125 g ai/ha,40
same,Plant response rating: Chamomile,[7]; 16 g ai/ha,30
same,Plant response rating: Chamomile,[7]; 31 g ai/ha,20
same,Plant response rating: Chamomile,[7]; 62 g ai/ha,20
same,Plant response rating: Chamomile,[7]; 125 g ai/ha,30
same,Plant response rating: Speedwell,[8]; 16 g ai/ha,75
same,Plant response rating: Speedwell,[8]; 31 g ai/ha,75
same,Plant response rating: Speedwell,[8]; 62 g ai/ha,75
same,Plant response rating: Speedwell,[8]; 125 g ai/ha,90
same,"Plant response rating: Bromegrass, Down",[9]; 16 g ai/ha,25
same,"Plant response rating: Bromegrass, Down",[9]; 31 g ai/ha,40
same,"Plant response rating: Bromegrass, Down",[9]; 62 g ai/ha,45
same,"Plant response rating: Bromegrass, Down",[9]; 125 g ai/ha,50
same,"Plant response rating (0 to 100), Barley, Spring",[10],20
same,"Plant response rating: Barley, Spring",[10]; 31 g ai/ha,25
same,"Plant response rating: Barley, Spring",[10]; 62 g ai/ha,30
same,"Plant response rating: Barley, Spring",[10]; 125 g ai/ha,35
same,"Plant response rating (0 to 100), Barley, Winter",[11],15
same,"Plant response rating: Barley, Winter",[11]; 31 g ai/ha,15
same,"Plant response rating: Barley, Winter",[11]; 62 g ai/ha,25
same,"Plant response rating: Barley, Winter",[11]; 125 g ai/ha,25
same,Plant response rating (scale of 0 to 100 where 0 is no effect and 100 is complete control),[3]; 125 g ai/ha,35
same,Plant response rating (scale of 0 to 100 where 0 is no effect and 100 is complete control),[3]; 250 g ai/ha,40
same,Morningglory plant response rating (0 to 100),[3]; 31 g ai/ha,10
same,Morningglory plant response rating (0 to 100),[3]; 62 g ai/ha,30
same,Velvetleaf plant response rating (0 to 100),[4]; 31 g ai/ha,30
same,Velvetleaf plant response rating (0 to 100),[4]; 62 g ai/ha,45
same,Plant response rating (scale of 0 to 100 where 0 is no effect and 100 is complete control),[4],60
same,"Plant response rating: Mustard, Wild",[12]; 16 g ai/ha,65
same,"Plant response rating: Mustard, Wild",[12]; 31 g ai/ha,70
same,"Plant response rating: Mustard, Wild",[12]; 62 g ai/ha,100
same,"Plant response rating: Mustard, Wild",[12]; 125 g ai/ha,100
same,"Plant response rating (0 to 100), Mustard, Wild",[13],65
same,"Plant response rating: Mustard, Wild",[13]; 62 g ai/ha,100
same,"Plant response rating: Mustard, Wild",[13]; 125 g ai/ha,100
same,"Plant response rating: Oat, Wild",[14]; 16 g ai/ha,35
same,"Plant response rating: Oat, Wild",[14]; 31 g ai/ha,45
same,"Plant response rating: Oat, Wild",[14]; 62 g ai/ha,50
same,"Plant response rating: Oat, Wild",[14]; 125 g ai/ha,55
COc1nc(-c2ccc(Cl)cc2)nn1Cc1ccnc(C(F)(F)F)c1 [Compound 28],"Plant response rating (0 to 100), Pigweed",[5],100
same,Plant response rating: Pigweed,[5]; 62 g ai/ha,100
same,Plant response rating: Pigweed,[5]; 125 g ai/ha,100
same,"Plant response rating (0 to 100), Bromegrass, Down",[6],35
same,"Plant response rating: Bromegrass, Down",[6]; 31 g ai/ha,40
same,"Plant response rating: Bromegrass, Down",[6]; 62 g ai/ha,45
same,"Plant response rating: Bromegrass, Down",[6]; 125 g ai/ha,45
same,Plant response rating: Chamomile,[7]; 16 g ai/ha,10
same,Plant response rating: Chamomile,[7]; 31 g ai/ha,15
same,Plant response rating: Chamomile,[7]; 62 g ai/ha,15
same,Plant response rating: Chamomile,[7]; 125 g ai/ha,25
same,Plant response rating: Speedwell,[8]; 16 g ai/ha,75
same,Plant response rating: Speedwell,[8]; 31 g ai/ha,75
same,Plant response rating: Speedwell,[8]; 62 g ai/ha,85
same,Plant response rating: Speedwell,[8]; 125 g ai/ha,80
same,"Plant response rating: Bromegrass, Down",[9]; 16 g ai/ha,20
same,"Plant response rating: Bromegrass, Down",[9]; 31 g ai/ha,20
same,"Plant response rating: Bromegrass, Down",[9]; 62 g ai/ha,25
same,"Plant response rating: Bromegrass, Down",[9]; 125 g ai/ha,35
same,"Plant response rating (0 to 100), Barley, Spring",[10],15
same,"Plant response rating: Barley, Spring",[10]; 31 g ai/ha,20
same,"Plant response rating: Barley, Spring",[10]; 62 g ai/ha,20
same,"Plant response rating: Barley, Spring",[10]; 125 g ai/ha,25
same,"Plant response rating (0 to 100), Barley, Winter",[11],10
same,"Plant response rating: Barley, Winter",[11]; 31 g ai/ha,15
same,"Plant response rating: Barley, Winter",[11]; 62 g ai/ha,20
same,"Plant response rating: Barley, Winter",[11]; 125 g ai/ha,25
same,"Plant response rating: Mustard, Wild",[12]; 16 g ai/ha,90
same,"Plant response rating: Mustard, Wild",[12]; 31 g ai/ha,100
same,"Plant response rating: Mustard, Wild",[12]; 62 g ai/ha,100
same,"Plant response rating: Mustard, Wild",[12]; 125 g ai/ha,100
same,"Plant response rating (0 to 100), Mustard, Wild",[13],90
same,"Plant response rating: Mustard, Wild",[13]; 62 g ai/ha,100
same,"Plant response rating: Mustard, Wild",[13]; 125 g ai/ha,100
same,"Plant response rating: Oat, Wild",[14]; 16 g ai/ha,30
same,"Plant response rating: Oat, Wild",[14]; 31 g ai/ha,40
same,"Plant response rating: Oat, Wild",[14]; 62 g ai/ha,45
same,"Plant response rating: Oat, Wild",[14]; 125 g ai/ha,50
